Activity calls are given as the source filed them. The rule behind the calls is not given here.

The assay relates to S. cerevisiae expressing PfHSP40, growth rescue, plate reader. Kind of assay: S cerevisiae expressing PfHSP40, growth rescue, cherry pick dose confirmatory, plate reader (AID 540271).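 Note: yeast growth read after three days of incubation at 30 °C.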
Broadly, the AC50 is the midpoint of the concentration-response curve, whichever way the signal moves. Consider `O=C(Nc1nc(-c2ccccn2)cs1)c1ccc(Br)s1`, for which the AC50 was 0.584 µM.
For `CC(C)(c1cc(Br)c(O)c(Br)c1)c1cc(Br)c(O)c(Br)c1` the value was 8.13 µM.
For `Clc1cccc(CON/C=N/c2ncnc3sccc23)c1` the value was 3.74 µM; for `COc1ccc2c(n1)Sc1nc3ccccc3nc1N2`, 1.35 µM; for `Oc1c(I)cc(Cl)c2cccnc12`, 0.629 µM.
For `CC(C)(C)c1cc(-c2nc(N)nc(N)n2)c(O)c(C(C)(C)C)c1` the value was 4.99 µM.
Consider `O=NN(CCc1ccncc1)c1ccc(OCc2ccccc2)cc1`, for which the AC50 is 5.81 µM.
For `Clc1ccc(OCc2nc(-c3ccncc3)no2)c(Br)c1` the value was 6.2 µM; for `O=S(=O)(Nc1nc2ccccc2nc1N1CCN(c2ccccn2)CC1)c1ccc(Cl)cc1`, 1.79 µM; for `COc1cc(NS(=O)(=O)c2ccc(C)cc2)c2ncccc2c1`, 5.4 µM.
For `Cc1ccc(Nc2cc(C)nn2-c2nc(C)cc(C)n2)cc1` the value was 3.95 µM; for `CC1=CC(=O)C=C(C)C1=NOS(=O)(=O)c1ccccc1`, 4.15 µM; for `CN(C)c1nc(SCc2ccc(Cl)cc2)nc2c1CCCC2`, 5.58 µM.
With `CCCCC(CC)c1nnc(NC(=O)c2cccs2)s1` (configuration not stated), the AC50 is 6.66 µM.
For `C=CCOC(Cn1ccnc1)c1ccc(Cl)cc1Cl` (configuration not stated) the value was 1.89 µM; for `Cc1cc(C)c(OCC(=O)Nc2nc(-c3ccccn3)cs2)c(C)c1`, 4.34 µM.
As for `C[C@@]12C(=O)Nc3ccc(F)cc3C(=O)N1[C@H]1c3ccccc3OC[C@@H]1[C@@H]2c1ccccc1`, the figure is 8.46 µM; as for `O=C(CSc1nc2ccccc2s1)N/N=C/c1cc([N+](=O)[O-])ccc1O`, 5.52 µM.
For `Cc1ccc(C(C)(C)C)cc1S(=O)(=O)Nc1ncnc2sccc12` the value was 2.83 µM; for `CC(C)CSc1n[nH]c(=S)s1`, 6.48 µM; for `FC(F)(F)c1cccc(N2CCc3cn[nH]c32)c1`, 0.446 µM.
Take `CC1CC(C)CN(C(=O)c2cccc(S(=O)(=O)Nc3cc(C(F)(F)F)ccc3Cl)c2)C1` (configuration not stated): the AC50 was 5.69 µM.
For `C(=C1c2ccccc2-c2ccccc21)c1ccncc1` the value was 6.18 µM.
Turning to `Cc1ccc(C(=O)C(SC(C)(C)C)n2cncn2)cc1` (configuration not stated), the half-maximal activity concentration (AC50) was 5.78 µM.
With `CCCn1c(=O)c(C(=O)NCc2ccc(OC)c(OC)c2)c(O)c2ccccc21`, the AC50 is 2.32 µM.
On to `C=CCc1ccc(O)c(-c2ccc(O)c(CC=C)c2)c1`, for which the AC50 is 4.8 µM.
For `O=C1OCC(CO)(CO)N=C1NNc1ccc(Cl)c(Cl)c1` the value was 1.87 µM; for `Cc1nnc(N=c2ssnc2Cl)o1`, 3.22 µM.
For `COc1cc2c(c(OC)c1OC)-c1ccc(O)c(=O)cc1[C@@H](N)CC2` the value was 2.52 µM; for `CCCOc1ccc(N2C(=O)CC(N3CCC(C(=O)OCC)CC3)C2=O)cc1` (configuration not stated), 6.34 µM; for `Cn1ccc(=Nc2ccc(NC(=O)c3ccc(N=c4ccn(C)c5ccc([N+](=O)[O-])cc45)cc3)cc2)cc1`, 6.48 µM.
`CC(C)c1cc(-c2cc(C(=O)NCc3ccccc3)on2)nc(NCC2CC2)n1`: the AC50 was 5.24 µM.
As for `Cc1cc(Nc2ccccc2)nn1C(=O)c1ccccc1`, the figure is 5.94 µM; as for `Cc1ccccc1OCC(O)Cn1c2ccccc2c2ccccc21` (configuration not stated), 4.74 µM.
On to `Cc1cccc(NC(=S)NC(C)CCc2ccccc2)c1` (configuration not stated), for which the AC50 was 7.92 µM.
With `O=C(CC1(O)C(=O)Nc2cc(Cl)cc(Cl)c21)c1ccncc1` (configuration not stated), the AC50 was > 12 µM (inactive).
For `CCN1/C(=C/c2sc(-c3ccccc3C)c[n+]2C)Sc2ccccc21` the value was 5.83 µM; for `C[C@@]12CCC3[C@@](CCC4[C@@]3(C)CCC[C@@]4(C)C(=O)NCc3ccccc3)(CC1=O)C2` (some centres not stated), 1.43 µM; for `Cc1onc(-c2ccccc2)c1C(=O)NC(=S)NNC(=O)c1cc(-c2ccc(F)cc2)n[nH]1`, > 4.2 µM (inactive).
`Cc1cc(/C=N/n2cnnc2)c(C)n1-c1ccc(OCc2ccc(F)cc2)cc1`: the AC50 is 4.69 µM.
As for `CCCCCCCc1ccc(-c2ccc(O)cc2)nc1`, the figure is 5.12 µM.
As for `Cc1ccc2c(c1C)-c1c(ccc(C)c1C)C(=O)C2=O`, the figure is 1.48 µM.
As for `CCC(NC(=S)NCc1ccc(F)cc1)c1ccc(C(C)C)cc1` (configuration not stated), the figure is 5.15 µM; as for `[O-][n+]1cccc2c(Br)cc(Br)c(O)c21`, 2.69 µM; as for `COC(=O)c1ccc(N2C(=O)CC(N(C)CCc3ccc(OC)c(OC)c3)C2=O)cc1` (configuration not stated), 5.2 µM.
With `O=CC1=C(c2ccccc2)Oc2ccccc2O1`, the AC50 was 2.78 µM.
In the case of `FC(F)(F)c1nc(SCc2ccc(Cl)cc2Cl)n[nH]1`, the AC50 was 6.21 µM.
For the compound `C=C(C)COc1ccc(-c2[nH]ncc2-c2ccccc2)c(O)c1`, the AC50 was 5.52 µM.
For `COc1ccccc1CNC(=O)CSc1ccc(-c2ccccn2)nn1` the value was 5.89 µM; for `CC(=O)Oc1ccc(OC(C)=O)c(SCCCCCCl)c1`, 7.6 µM; for `O=C(CSc1ccc(-c2ccccn2)nn1)c1ccccc1`, 2.48 µM.
On to `Cc1cccc(N2CCN(C(=O)C3COc4ccccc4O3)CC2)c1C` (configuration not stated), for which the AC50 is 6.72 µM.
On to `CCCNC(=O)c1ccc2c(=O)c(O)c(-c3ccc(F)cc3)[nH]c2c1`, for which the AC50 is 6.08 µM.
For `COC(=O)/C=C\C(=O)Nc1cccc([N+](=O)[O-])c1` the value was 1.83 µM; for `CCOC(=O)N1CCN(S(=O)(=O)c2ccc(C(=O)NNc3nc4ccc(Cl)cc4s3)cc2)CC1`, 5.51 µM; for `CSC1SCC2C(=O)N(C)C(C(C)C)C(=O)OCC(NC(=O)c3cnc4ccccc4n3)C(=O)NC(C)C(=O)N(C)C1C(=O)N(C)C(C(C)C)C(=O)OCC(NC(=O)c1cnc3ccccc3n1)C(=O)NC(C)C(=O)N2C` (configuration not stated), > 12 µM (inactive).
For `O=c1nc(N/N=C/c2ccccn2)cn[nH]1` the value was 5.76 µM; for `Cn1cnc([N+](=O)[O-])c1S(=O)(=O)Oc1ccc(Cl)cc1`, 6.4 µM; for `Cc1ccccc1C(=O)NNC(=S)NC(=O)c1ccc(Cl)cc1Cl`, 2.36 µM.
For the compound `COc1ccc(OC)c2c1C(=O)C(Cl)=C(Cl)C2=O`, the AC50 is 1.4 µM.
Turning to `COc1ccc2c(c1)OC[C@H]1[C@H]2N2C(=O)c3cc(C)ccc3NC(=O)[C@@]2(C)[C@H]1c1ccccc1`, the AC50 is 6.11 µM.
Take `O=Nc1c(O)n(Cc2ccc(Cl)c(Cl)c2)c2ccccc12`: the AC50 is 6.59 µM.
Turning to `Cc1oc2c(c1C(=O)c1ccccc1)C(=O)C(=O)c1ccccc1-2`, the AC50 is 5.65 µM.
For the compound `CC(C)(C)n1nc(-c2ccc(Cl)cc2)c2c(N)ncnc21`, the AC50 was 1.56 µM.
As for `COc1cc([N+](=O)[O-])cc(/C=N/NC(=O)c2cncc(Br)c2)c1O`, the figure is 4.36 µM; as for `COc1ccc(N(C(=O)c2ccncc2)S(=O)(=O)c2ccccc2)cc1`, 2.4 µM.
For `CCCCCOc1ccc(CSc2n[nH]c(C)n2)cc1` the value was 3.81 µM.
`Cc1ccc(Sc2ccc(NC(=O)CCl)cc2)cc1C`: the AC50 was 4.54 µM.
As for `O=C1c2cc(F)ccc2-n2c1nc1ccccc1c2=O`, the figure is 0.927 µM; as for `Clc1ccc(CSC(Cn2ccnc2)c2ccc(Cl)cc2Cl)cc1` (configuration not stated), 0.25 µM.
As for `c1ccc(CSc2ccc(-c3ccccn3)nn2)nc1`, the figure is 4.49 µM; as for `Cc1ccc2c(C)c3ccc4ccccc4c3c[n+]2c1`, 6 µM.
For the compound `CCc1ccccc1OCC(=O)Nc1nc(-c2cccnc2)cs1`, the AC50 is 1.84 µM.
As for `Cc1ccsc1/C=C/c1ccc2cccc(O)c2n1`, the figure is 3.48 µM.
As for `O=Nc1c(O)c2ccccc2c2ccccc12`, the figure is 0.902 µM; as for `Cc1noc2ncnc(SCc3ccc(C(F)(F)F)cc3)c12`, 7.67 µM.
As for `O=C(N/N=C/c1sc(N2CCOCC2)nc1-c1ccccc1)c1ccccc1O`, the figure is 6.17 µM; as for `Cc1cccc2sc(NNC(=O)c3ccc(S(=O)(=O)N4CCCC(C)C4)cc3)nc12` (configuration not stated), 2.81 µM; as for `CC1CCCCC1NC(=O)/C(C#N)=C/c1ccccc1F` (configuration not stated), 5.7 µM.
Turning to `CC(C)(C)C(=O)C(Cl)C(=O)Nc1ccccc1` (configuration not stated), the AC50 was 5.65 µM.
With `COc1cc2cnc(-c3ccccc3)c(C(=O)c3ccc(F)cc3)c2cc1OC`, the AC50 was 4.57 µM.
As for `COc1ccc(C2=CC(=O)C[C@H](c3ccc4c(c3)OCO4)C2)cc1`, the AC50 was 6.93 µM.
As for `CCCC(=O)NC(c1ccccc1OC)c1ccc2cccnc2c1O` (configuration not stated), the figure is 1.7 µM; as for `CN(C)S(=O)(=O)c1cccc(NC(=S)NNC(=O)c2cc3ccccc3cc2O)c1`, 2.86 µM; as for `CCC(C)c1ccc(NC(=S)NCCn2cc(Br)cn2)cc1` (configuration not stated), 10.1 µM.
For the compound `O=C(Cc1ccccc1F)Nc1nc(-c2ccc(F)c(F)c2)cs1`, the AC50 is 6.72 µM.
As for `CCCC1CCC(c2ccc(/C(N)=N/O)cc2)CC1` (configuration not stated), the figure is > 12 µM (inactive); as for `N/C(Cc1ccc(Cl)cc1Cl)=N\OC(=O)c1ccccc1F`, 5.93 µM; as for `O/N=C/c1cc(Br)ccc1OCc1ccccc1F`, 4.76 µM.
For the compound `CCn1nc(/C=C/c2ccccc2)nc2c(=O)n(C)c(=O)nc1-2`, the AC50 is 2.36 µM.
For `CCOC(=O)C1=C(Cc2ccc(OC)cc2)C(=O)c2ccccc2C1=O` the value was 5.4 µM.
For the compound `O/N=C/c1cc(Br)ccc1OCc1cccc(F)c1`, the AC50 was 6.89 µM.
Take `O=[N+]([O-])c1ccc(Sc2cccc[n+]2[O-])c2nonc12`: the AC50 was 2.43 µM.
For `CCC(C)Sc1cccc(-c2nc3ccccn3c2NCc2ccccc2)c1` (configuration not stated) the value was 7.22 µM; for `O=C(Sc1cccc2cccnc12)c1ccccc1Br`, 6.63 µM.
Take `CC(C)CNC(=O)COC(=O)c1ccc([N+](=O)[O-])cc1Cl`: the AC50 was > 12 µM (inactive).
For `O=Cc1cc(N=Nc2ccccc2Cl)ccc1O` the value was 0.768 µM; for `CC(C)(CN1CCc2ccccc2C1)NS(=O)(=O)c1ccc(Cl)cc1`, 11 µM.
Regarding `Oc1ccc(Cl)cc1CNc1cccc2cccnc12`, the AC50 was 6.73 µM.
For `Cc1onc(-c2ccccc2)c1C(=O)NC(=S)NNC(=O)c1ccc(O)cc1O` the value was 4.82 µM.
`Cc1ccc(S(=O)(=O)N(C(=O)c2ccncc2)c2ccc(OC(=O)c3ccncc3)cc2)cc1`: the AC50 was 1.83 µM.
As for `O=C(NCc1ccncc1)c1ccccc1Nc1ccc(SC(F)F)cc1`, the figure is 5.31 µM.

These data come from PubChem BioAssay AID540271 (Broad Institute, 2011).
